The text below walks through data of US20250034116A1, “1,4-DIHETEROCYCLIC SUBSTITUTED AROMATIC RING OR AROMATIC HETEROCYCLIC COMPOUND AND USE THEREOF” (BeBetter Med Inc., priority 2022, published 2025).

Series [1] has as its system diet-induced obesity (DIO) mouse model. Nature of the series: Experiment 4: weight loss of compound 2 compared with semaglutide in DIO mouse model. It is filed as in vivo, Male C57BL/6J mice. The text has this: Experiment 4 was to compare the weight loss effects of compound 2 with that of semaglutide in a diet-induced obesity (DIO) mouse model. Male C57BL/6J mice were purchased from Vital River Laboratories (Shanghai) Co., Ltd. and housed in a barrier system animal facility. Animals were randomly divided into 4 groups: normal control group, DIO model control group, compound 2 treatment group, and semaglutide treatment group, with 6 animals per group. The model control group and treatment groups were first fed with high-fat diet (HFD) for 18 weeks, after which the treatment groups were administered with compound 2 or semaglutide, respectively. Compound 2 was administered orally at a dose of 30 mg/kg once daily for 14 consecutive weeks, while semaglutide was administered subcutaneously at a dose of 30 nmol/kg once daily. After 7 weeks of semaglutide treatment, the semaglutide treatment group was switched to compound 2 treatment for another 7 weeks.

Series [2] relates to CYP enzymes in rat liver microsomes (RLM). Put plainly: Inhibition of 20-HETE production in rat liver microsomes (RLM). It is filed as biochemical. Summed up: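 Test compounds were dissolved in DMSO, diluted in acetonitrile/DMSO (3:1), and 2 μl was mixed with 100 μl potassium phosphate buffer containing rat liver microsomes in a 96-well plate. Duplicate 30 μl aliquots received 15 μl of 400 μM substrate, were preheated at 37° C. for 10 minutes, then started with 15 μl of 6 mM NADPH for 25 minutes. LC-MS/MS measured 20-HETE formation.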

Series [3] concerns 20-HETE. Put plainly: Experiment 6: level of 20-HETE in DIO rat model. The settings on record: DIO rats, single oral dose 25 mg/kg, 8 hours; most pronounced in the kidneys. It is filed as in vivo, Male SD rats. As for the experimental part:
Experiment 6 was to investigate the effect of compound 2 on regulating the level of 20-HETE in a diet-induced obesity (DIO) rat model. Male SD rats were purchased from Guangdong Vital River Laboratory Animal Technology Co., Ltd. and housed in a barrier system animal facility. After 14 weeks of high-fat diet (HFD) induction, compound 2 was administered at a dose of 25 mg/kg once, and samples were collected after 8 hours to detect the level of 20-HETE. A solvent control group was also set up simultaneously, with 3 animals per group.

Series [4] can be described thus: Pharmacokinetic (PK) experiment, oral administration in rats. It is filed as in vivo, Male SD rats. The note with it: 20 mg/kg. Summed up:
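Fasted male SD rats (180-250 g) received 20 mg/kg orally in 30% sulfobutylether-β-cyclodextrin. Tail-vein blood sampled 15 min to 24 h post-dose into K2-EDTA; plasma protein-precipitated with acetonitrile containing internal standard and analysed by LC-MS/MS.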

In series [5] the test system is 20-HETE. Nature of the series: Experiment 5: level of 20-HETE in DIO mouse model. It is filed as in vivo, Male C57BL/6J mice. The note with it: DIO mice, single oral dose 50 mg/kg, 8 hours; most pronounced in the liver and kidneys. As for the experimental part:
Experiment 5 was to investigate the effect of compound 2 on regulating the level of 20-HETE in a diet-induced obesity (DIO) mouse model. Male C57BL/6J mice were purchased from Guangdong Vital River Laboratory Animal Technology Co., Ltd. and housed in a barrier system animal facility. After 24 weeks of high-fat diet (HFD) induction, compound 2 was administered at a dose of 50 mg/kg once, and samples were collected after 8 hours to detect the level of 20-HETE. A solvent control group was also set up simultaneously, with 3 animals per group.

Series [6] relates to diet-induced obesity (DIO) mouse model. Put plainly: Experiment 2: compound 2 and 4, weight loss and blood glucose lowering in DIO mouse model. It is filed as in vivo, Male C57BL/6J mice. The text has this:
Experiment 2 was to study the effects of compound 2 and 4 on weight loss and blood glucose lowering in a diet-induced obesity (DIO) mouse model. Male C57BL/6J mice were purchased from Zhuhai BST Biotechnology Co., Ltd. and housed in a barrier system animal facility. Animals were randomly divided into 4 groups: normal control group, DIO model control group, DIO model compound 2 treatment group, and DIO model compound 4 treatment group, with 4-5 animals per group. The model control group and treatment groups were first fed with high-fat diet (HFD) for 9 weeks (day 63), and then the treatment groups were orally administered with compound 2 or compound 4 at a dose of 50 mg/kg once daily for 4 consecutive weeks, while continuing to receive HFD. Animal weights were measured weekly, and on the last day of treatment, they were fasted overnight but allowed access to water before an oral glucose tolerance test (OGTT).

For series [7], the system named is CYP enzymes in human liver microsomes (HLM). Put plainly: Inhibition of 20-HETE production in human liver microsomes (HLM). It is filed as biochemical. Summed up: (§1)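 LC-MS/MS read-out of 20-HETE formation, expressed as activity relative to no-inhibitor control and fitted to a Hill equation for IC50; percent inhibition also given at 1000, 500 or 100 nM. Enzyme sources: recombinant CYP4F2, recombinant CYP4A11, or human or mouse liver microsomes. Each is combined with compound and substrate (400 μM solution) and warmed 10 min at 37 °C, then incubated 25 min at 37 °C after adding NADPH (6 mM solution).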

The subject of series [8] is CYP enzymes in mouse liver microsomes (MLM). Put plainly: Inhibition of 20-HETE production in mouse liver microsomes (MLM). It is filed as biochemical. The method, boiled down:
as §1

Setting [9] is: 50 mg/kg orally once daily for 4 weeks, DIO mice.

With `O=C1CCCN1CC1CCN(c2ccc(-c3cn[nH]c3)cc2F)CC1` [Compound 2, 1-((1-(2-fluoro-4-(1H-pyrazol-4-yl)phenyl)piperidin-4-yl)methyl)pyrrolidin-2-one], in series [1] (30 mg/kg orally once daily, after 6 weeks), the “maximum weight loss effect, decrease compared to pre-administration weight” value is given as “approximately 36%”. Moreover, in series [1] (30 mg/kg orally once daily, returned to control level in the 6th week), the food intake result is “slightly decreased”. For the same compound, the “body weight decrease, of pre-administration weight” value in series [1] (7 weeks semaglutide, then switched to compound 2 for 7 weeks) worked out at 33.6%. The “weight loss effect compared with semaglutide” value in series [1] (DIO mouse model) is “greater weight loss effect than semaglutide”. This compound also returned an IC50 in series [2] of 103 nM. In addition, the “RLM (% inh @ 500 nM)” value in series [2] (500 nM) stood at 59.38%. The “20-HETE levels in the liver, kidneys, and brain tissues compared to the solvent control group” value in series [3] is given as “varying degrees of decrease”. Moreover, the “absorption and blood exposure after oral administration (in words)” value in series [4] is “well absorbed and exhibit high blood exposure”. In addition, in series [4] (male, SD, rat, plasma), the AUC(0-inf) turned out to be 120 µg·h/mL, the highest concentration (Cmax) came to 10100 ng/mL, the Tmax amounted to 3.33 h and the half-life was 5.2 h. In series [4] (male, SD, rat, plasma, read-out: AUC0-24), the AUC(0-t) amounted to 115 µg·h/mL. Moreover, in series [5], the “20-HETE levels in the liver, kidneys, and brain tissues compared to the solvent control group” value is reported as “varying degrees of decrease”. Also, in series [6] (setting [9]), the fasting blood glucose result is reported as “inhibit the increase in fasting blood glucose” and the “glucose metabolism (OGTT)” value is recorded as “enhance glucose metabolism”. Further, the “body weight decrease, of the pre-administration weight” value in series [6] (50 mg/kg orally once daily, first week of administration, after 9 weeks HFD) is 12%-16%. Moreover, it took 28.7 nM to reach half-maximal inhibition in series [7] (IC50). For the same compound, the “HLM (% inh @ 500 nM)” value in series [7] (500 nM) came out at 79.50%. In series [8], this compound showed an IC50 of 1340 nM.
